Where “and” joins values, the source holds several entries; their conditions need not be identical. Identical values can stand only once. Inconclusive results and toxic doses are left out. Rule as the data show it: active = T/C of 150% or more; inactive = T/C below 125%.
Test system: L1210 leukemia ip in BDF1 mice, survival T/C
Experiment: NCI In Vivo Anticancer Drug Screen. Data for tumor model L1210 Leukemia (intraperitoneal) in B6D2F1 (BDF1) mice
Details: endpoint: mean survival time, higher = longer survival
Summary of the method: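 Antitumor effect is assessed in tumor-bearing animals. Survival in the compound arm is compared with a vehicle-dosed control arm and expressed as their quotient.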

[1] = dose: 10.0 mg/kg/injection, schedule: Q01DX001 (ip), vehicle: saline
[2] = dose: 12.5 mg/kg/injection, schedule: Q01DX009 (ip), vehicle: saline
[3] = dose: 20.0 mg/kg/injection, schedule: Q01DX001 (ip), vehicle: saline
[4] = dose: 25.0 mg/kg/injection, schedule: Q01DX009 (ip), vehicle: saline
[5] = dose: 25.0 mg/kg/injection, schedule: Q04DX003 (ip), vehicle: saline
[6] = dose: 40.0 mg/kg/injection, schedule: Q01DX001 (ip), vehicle: saline
[7] = dose: 50.0 mg/kg/injection, schedule: Q01DX009 (ip), vehicle: saline
[8] = dose: 50.0 mg/kg/injection, schedule: Q04DX003 (ip), vehicle: saline
[9] = dose: 80.0 mg/kg/injection, schedule: Q01DX001 (ip), vehicle: saline
[10] = dose: 100.0 mg/kg/injection, schedule: Q01DX001 (ip), vehicle: saline
[11] = dose: 100.0 mg/kg/injection, schedule: Q04DX003 (ip), vehicle: saline
[12] = dose: 200.0 mg/kg/injection, schedule: Q04DX003 (ip), vehicle: saline
[13] = dose: 400.0 mg/kg/injection, schedule: Q04DX003 (ip), vehicle: saline
[14] = dose: 100.0 mg/kg/injection, schedule: Q01DX009 (ip), vehicle: saline
[15] = dose: 200.0 mg/kg/injection, schedule: Q01DX009 (ip), vehicle: saline
[16] = dose: 100.0 mg/kg/injection, schedule: Q04DX003 (ip), vehicle: Klucel (hydroxypropylcellulose) (HPC)
[17] = dose: 200.0 mg/kg/injection, schedule: Q04DX003 (ip), vehicle: Klucel (hydroxypropylcellulose) (HPC)
[18] = dose: 5.0 mg/kg/injection, schedule: Q01DX001 (ip), vehicle: saline
[19] = dose: 100.0 mg/kg/injection, schedule: Q04DX003 (ip), vehicle: saline with Tween-80
[20] = dose: 200.0 mg/kg/injection, schedule: Q04DX003 (ip), vehicle: saline with Tween-80
[21] = dose: 400.0 mg/kg/injection, schedule: Q04DX003 (ip), vehicle: saline with Tween-80

Measured: T/C

CC(N)CCc1ccccc1 (stereo not given)
inactive: [1] 105 % of control | [2] 97 % of control | dose: 12.5 mg/kg/injection, schedule: Q04DX003 (ip), vehicle: saline 102 % of control | [3] 101 % of control | [4] 95 % of control | [5] 112 % of control | [6] 95 % of control | [7] 97 % of control | dose: 50.0 mg/kg/injection, schedule: Q04DX003 (ip), vehicle: saline with Tween-80 90 % of control | [8] 104 % of control | [9] 101 % of control | [10] 100 % of control

CN(C)C(=O)Nc1ccncc1
inactive: dose: 25.0 mg/kg/injection, schedule: Q01DX001 (ip), vehicle: saline 97 % of control | [4] 98 % of control and 91 % of control | dose: 25.0 mg/kg/injection, schedule: Q04DX002 (ip), vehicle: saline with Tween-80 93 % of control and 97 % of control | [5] 103 % of control | dose: 50.0 mg/kg/injection, schedule: Q01DX001 (ip), vehicle: saline 95 % of control | [7] 97 % of control and 88 % of control | dose: 50.0 mg/kg/injection, schedule: Q04DX002 (ip), vehicle: saline with Tween-80 98 % of control and 105 % of control | [8] 101 % of control

NC1CCC(C(=O)O)NC1 (stereo not given)
inactive: [11] 104 % of control | [12] 107 % of control | [13] 109 % of control

CC(O)C#N (stereo not given)
inactive: dose: 0.63 mg/kg/injection, schedule: Q04DX003 (ip), vehicle: saline 102 % of control | dose: 1.25 mg/kg/injection, schedule: Q04DX003 (ip), vehicle: saline 115 % of control | dose: 2.5 mg/kg/injection, schedule: Q04DX003 (ip), vehicle: saline 115 % of control | dose: 5.0 mg/kg/injection, schedule: Q04DX003 (ip), vehicle: saline 103 % of control

CSc1cccc(NC(C)=O)c1
inactive: [14] 97 % of control | [11] 93 % of control | [15] 113 % of control | [12] 97 % of control | dose: 400.0 mg/kg/injection, schedule: Q01DX009 (ip), vehicle: saline 104 % of control | [13] 101 % of control

Cc1cc(C)c(NC(=S)NC(=O)c2cccc3ccccc23)c(C)c1
inactive: dose: 100.0 mg/kg/injection, schedule: Q01DX009 (ip), vehicle: Klucel (hydroxypropylcellulose) (HPC) 98 % of control | [16] 103 % of control | dose: 200.0 mg/kg/injection, schedule: Q01DX009 (ip), vehicle: Klucel (hydroxypropylcellulose) (HPC) 106 % of control | [17] 97 % of control | dose: 400.0 mg/kg/injection, schedule: Q01DX009 (ip), vehicle: Klucel (hydroxypropylcellulose) (HPC) 95 % of control | dose: 400.0 mg/kg/injection, schedule: Q04DX003 (ip), vehicle: Klucel (hydroxypropylcellulose) (HPC) 103 % of control

COC1C(O)C(C)OC(O[C@@H]2C[C@H]3CC[C@@H]4[C@H](CC[C@]5(C)[C@@H](C6=CC(=O)OC6)CC[C@]45O)[C@@]3(C)[C@H](O)C2)C1O (stereo not given in full)
inactive: dose: 0.63 mg/kg/injection, schedule: Q01DX001 (ip), vehicle: saline 103 % of control | dose: 1.25 mg/kg/injection, schedule: Q01DX001 (ip), vehicle: saline 101 % of control | dose: 2.5 mg/kg/injection, schedule: Q01DX001 (ip), vehicle: saline 97 % of control | [18] 94 % of control | [1] 103 % of control | [3] 106 % of control | [6] 111 % of control | [9] 101 % of control

O=C(O)COc1ccccc1-c1ccccc1Cl
inactive: [16] 98 % of control | [17] 90 % of control

c1ccc(CN2CCn3nccc32)cc1
inactive: dose: 25.0 mg/kg/injection, schedule: Q01DX009 (ip), vehicle: other 104 % of control | dose: 50.0 mg/kg/injection, schedule: Q01DX009 (ip), vehicle: other 96 % of control | dose: 100.0 mg/kg/injection, schedule: Q01DX009 (ip), vehicle: other 104 % of control | dose: 200.0 mg/kg/injection, schedule: Q01DX009 (ip), vehicle: other 95 % of control

CN(C)C=Nc1ccc2c3c(cccc13)CC2
inactive: dose: 6.25 mg/kg/injection, schedule: Q04DX003 (ip), vehicle: saline with Tween-80 103 % of control | dose: 12.5 mg/kg/injection, schedule: Q04DX003 (ip), vehicle: saline with Tween-80 88 % of control | dose: 25.0 mg/kg/injection, schedule: Q04DX003 (ip), vehicle: saline with Tween-80 98 % of control

CSc1nc2[nH]cc(C(=O)O)c(=O)c2c(=O)[nH]1
inactive: [11] 104 % of control | [12] 101 % of control | [13] 91 % of control

CCCCC(=O)N1CCCCCC1
inactive: dose: 100.0 mg/kg/injection, schedule: Q04DX002 (ip), vehicle: saline with Tween-80 105 % of control | dose: 200.0 mg/kg/injection, schedule: Q04DX002 (ip), vehicle: saline with Tween-80 87 % of control

O=C1NC(c2ccco2)N2C(=O)NC(c3ccco3)N12 (stereo not given)
inactive: dose: 100.0 mg/kg/injection, schedule: Q01DX009 (ip), vehicle: gum acacia 90 % of control | dose: 100.0 mg/kg/injection, schedule: Q04DX003 (ip), vehicle: gum acacia 101 % of control | dose: 200.0 mg/kg/injection, schedule: Q01DX009 (ip), vehicle: gum acacia 88 % of control | dose: 200.0 mg/kg/injection, schedule: Q04DX003 (ip), vehicle: gum acacia 95 % of control | dose: 400.0 mg/kg/injection, schedule: Q01DX009 (ip), vehicle: gum acacia 88 % of control | dose: 400.0 mg/kg/injection, schedule: Q04DX003 (ip), vehicle: gum acacia 106 % of control

CN1C(=O)NC(C)(c2cccs2)C1=O (stereo not given)
inactive: dose: 100.0 mg/kg/injection, schedule: Q01DX009 (ip), vehicle: saline with Tween-80 112 % of control | [19] 99 % of control | dose: 200.0 mg/kg/injection, schedule: Q01DX009 (ip), vehicle: saline with Tween-80 113 % of control | [20] 106 % of control | [21] 97 % of control

CC(C)c1cccc(OC(=O)N(C)[Si](C)(C)C)c1
inactive: [18] 105 % of control | [1] 97 % of control | [3] 101 % of control | [6] 101 % of control

Cc1cc2c(cc1[N+](=O)[O-])OCCO2
inactive: [19] 93 % of control | [20] 89 % of control | [21] 88 % of control

C#CCn1cnc2c(Cl)ncnc21
inactive: [10] 117 % of control | dose: 200.0 mg/kg/injection, schedule: Q01DX001 (ip), vehicle: saline 97 % of control | dose: 400.0 mg/kg/injection, schedule: Q01DX001 (ip), vehicle: saline 103 % of control

NCCCNc1ccccc1
inactive: [14] 92 % of control | [15] 98 % of control

O=C(O)/C=C/c1ccccc1Cl
inactive: dose: 25.0 mg/kg/injection, schedule: Q04DX003 (ip), vehicle: Klucel (hydroxypropylcellulose) (HPC) 94 % of control | dose: 50.0 mg/kg/injection, schedule: Q04DX003 (ip), vehicle: Klucel (hydroxypropylcellulose) (HPC) 103 % of control | [16] 96 % of control

COc1cccc2c1C(=O)c1c(O)c3c(c(O)c1C2=O)C[C@@](O)(/C(C)=N\NC(=O)CO)C[C@@H]3OC1CC(N)C(O)C(C)O1 (stereo not given in full)
inactive: dose: 0.88 mg/kg/injection, schedule: Q04DX003 (ip), vehicle: saline 119 % of control | dose: 1.33 mg/kg/injection, schedule: Q04DX003 (ip), vehicle: saline 124 % of control | dose: 3.0 mg/kg/injection, schedule: Q04DX003 (ip), vehicle: saline 120 % of control | dose: 3.5 mg/kg/injection, schedule: Q01DX009 (ip), vehicle: saline 122 % of control | dose: 6.25 mg/kg/injection, schedule: Q01DX009 (ip), vehicle: saline 105 % of control | dose: 7.0 mg/kg/injection, schedule: Q01DX009 (ip), vehicle: saline 123 % of control | [2] 116 % of control | dose: 14.0 mg/kg/injection, schedule: Q01DX009 (ip), vehicle: saline 95 % of control and 99 % of control | dose: 14.0 mg/kg/injection, schedule: Q04DX003 (ip), vehicle: saline 108 % of control | dose: 16.0 mg/kg/injection, schedule: Q04DX003 (ip), vehicle: saline 112 % of control | [5] 102 % of control | dose: 32.0 mg/kg/injection, schedule: Q04DX003 (ip), vehicle: saline 111 % of control | [8] 91 % of control

Reference: PubChem BioAssay AID248 (DTP/NCI, 2004)
